Like-named read-outs stand apart in the source and are kept apart here.
Legend:
MCF7 cells [1] = settings: MCF7 (drug sensitive)
Method: (§1) Cells were either treated with various concentrations of paclitexal alone or in the presence of 20 μg/ml Rh2, 6 μg/ml PPT or PPD.

MCF7r cells [2] = settings: MCF7r (drug resistant)
Method: as §1

MCF7r cells [3] = experiment: cells; settings: Homo sapiens, read-out: IC50 of taxol
Method: as §1

MCF7 cells [4] = experiment: cells; settings: Homo sapiens, MCF7, read-out: IC50 of taxol
Method: as §1

Method for B16 melanoma tumor cells: Cells were treated with various concentrations of the compounds and the viability was measured 24 hours post treatment.

IC50 (MCF7r cells [3]) [nM]	IC50 (MCF7 cells [4]) [nM]	Structure (SMILES)	Tumor inhibitory effect (cytotoxicity) compared with Rh2 (B16 melanoma tumor cells)	Enhancement of IC50 of taxol versus taxol only (MCF7 cells [1]; compound at 6 μg/ml)	Enhancement of IC50 of taxol versus taxol only (MCF7r cells [2]; compound at 6 μg/ml)	Enhancement of IC50 of taxol versus taxol only (MCF7 cells [1]; compound at 20 μg/ml)	Enhancement of IC50 of taxol versus taxol only (MCF7r cells [2]; compound at 20 μg/ml)
		CC(C)=CCCC(C)(O)[C@H]1CC[C@]2(C)[C@@H]1[C@H](O)C[C@@H]1[C@@]3(C)CC[C@H](O)C(C)(C)[C@@H]3CC[C@]12C (stereo in doubt) [Protopanaxadiol, protopanaxadiol]	more potent tumor inhibitory effect than Rh2	(18 fold	(29517 fold		
		CC(C)=CCC[C@](C)(O)[C@H]1CC[C@]2(C)[C@@H]1[C@H](O)C[C@@H]1[C@@]3(C)CC[C@H](O)C(C)(C)[C@@H]3[C@@H](O)C[C@]12C [Protopanaxatrial, protopanaxatriol]	more potent tumor inhibitory effect than Rh2	(4.9 fold	(1744 fold		
		CC(C)=CCC[C@](C)(O)[C@H]1CC[C@]2(C)[C@@H]1[C@H](O)C[C@@H]1[C@@]3(C)CC[C@H](O[C@@H]4O[C@H](CO)[C@@H](O)[C@H](O)[C@H]4O)C(C)(C)[C@@H]3CC[C@]12C [Rh2, 3-O-β-D-glucopyranosyl-20(s)-protopanaxadiol, reference compound]				(3.65 fold	(4470 fold
930	225	CC(=O)O[C@H]1C(=O)[C@@]2(C)[C@H]([C@H](OC(=O)c3ccccc3)[C@]3(O)C[C@H](OC(=O)[C@H](O)[C@@H](NC(=O)c4ccccc4)c4ccccc4)C(C)=C1C3(C)C)[C@]1(OC(C)=O)CO[C@@H]1C[C@@H]2O [Taxol, paclitaxel]					

From patent publication US20030092638A1, “Protopanaxadiol and protopanaxatriol and their use as anti-cancer agents” (priority 2001, published 2003)
